Entries after “also recorded” stand apart in the source; their conditions may differ. Where two headings read alike, the source gives them in different places.
What was measured:
[1] = system: Jc1-luc virus; test: Luciferase compound activity assay, Jc1-luc virus in Huh7.5.1 cells; type: cell-based, HCV genotype-2a
Description: Cell culture. Human hepatoma Huh-7.5.1 cells or Huh7 cells were grown at 37° C. and 5% CO2 in Dulbecco's modification of Eagle's medium supplemented with 2 mM L-glutamine, 1 mM Sodium pyruvate, 1× Non-essential amino acids mix, 100 units/ml penicillin, 100 μg/ml streptomycin, and 10% fetal bovine serum.
Virus plasmids. The chimeric full-length construct pFL-JC1, a GT2a/2a chimera consisting of structural genes from the J6CF isolate and non-structural genes from the JFH1 isolate, has been described previously. See Backes et al., J. Virol. 2010, 84:5775-89; Schaller et al., J. Virol., 2007, 81:4591-603; Koutsoudakis et al., J. Virol. 2006, 80:5308-20; Pietschmann et al., Proc. Natl. Acad. Sci., 2006, 103:7408-13. The firefly luciferase gene has been inserted to pFL-Jc1 to develop a plamid pFL-Jc1-luc for use as a reporter of viral replication. See Amako et al., J. Virol. 2009, 83:9237-46. Specifically, the pFL-JC1-luc construct can be utilized to develop an infectious HCV cell culture system to test novel HCV inhibitors, including entry inhibitors, in vitro using luciferase expression.
Preparation of infectious HCV. Jc1-luc or HCV2a/2aChRluc RNA was in vitro transcribed using T7 RiboMAX™ Express Large Scale RNA Production System (Promega). After RNA clean up (Qiagen RNeasy Mini kit), transfection was performed as previously described.
400 microliters of a Huh-7.5.1 or Huh7 cell suspension (10^7 cells/ml) was placed in a 0.4-cm cuvette with 10 μg of Jc1-luc or HCV2a/2aChRluc RNA and electroporated (Bio-Rad Gene Pulser System) using a single square wave at 260 V and 25 ms pulse length. The cells were plated in 15-cm tissue culture dishes (Corning) and supernatant was harvested and concentrated using a centrifugal filter (Amicon 100K, Millipore).
Luciferase compound activity assay. Cell culture and luciferase compound assays were performed as previously described. See Wyles et al., J. Virol. 2007, 81:3005-8; Wyles et al., Antimicrob Agents Chemother. 2009, 53:2660-2; Grünberger et al., J. Infect. Dis. 2008, 197:42-5; Wyles et al., Antimicrob Agents Chemother, 2008, 52:1862-4. Briefly, Huh7.5.1 cells were seeded into 96-well plates at a density of 10,000 cells per well in 100 μl medium. After incubating overnight for attachment, Jc1-luc virus at an MOI 0.01 was added to wells with or without compounds at the specified concentrations. All conditions were run in triplicate. After 24 hours, medium was aspirated and replaced with 100 μl of complete medium containing an identical concentration of compound(s) followed by additional 48 hour incubation. The luciferase assay (Bright-Glo; Promega) was carried out according to the manufacturer's instructions. Luciferase activity was determined using a microplate luminometer (Veritas microplate luminometer; Turner Biosystems). […]

[2] = Cytotoxicity of anti-HCV compounds (CC50, Table 4); conditions: human, Huh7.5.1 cells
[3] = system: HCV2aChLuc virus; test: In vitro HCVcc entry assay: HCV2aChLuc virus infection of Huh7 cells, Renilla luciferase read-out; type: cell-based, HCV genotype 2a; conditions: for IC50: Hepatitis C virus
[4] = system: HCV genotype 1b subgenomic replicon; test: HCV replicon assay (HCV1b replicon cells, NS5A ELISA); type: cell-based; conditions: 3 days
Description: Alternatively, Hut1b cells (Huh7 cells stably replicating HCV genotype 1b subgenomic replicon) were treated with serial dilutions of the test compound for 72 hours. Replication efficiency was monitored by ELISA assay using anti-HCV NS5A monoclonal antibody (Virogen).
Increasing amounts of compound were inoculated onto HCV1b replicon cells and incubated for 3 days. Following incubation, HCV replication was monitored with NS5A protein expression by ELISA.

[5] = system: Bovine viral diarrhea virus (BVDV); test: BVDV plaque-forming assay in MDBK cells; type: cell-based; conditions: even at 1 μM
Description: Bovine viral diarrhea virus (BVDV) is a closely related virus to HCV, belonging to the same Family, Flaviviridae. To validate the specificity of antiviral activity, BVDV infection was done with MDBK cells in the presence of compounds provided herein. MDBK cells (70 to 80% confluent) were infected with a diluted virus. Following 1 h of adsorption at 37° C., cells were washed once with DMEM, overlaid with 1.5% low-melting-point (LMP) agarose (Gibco-BRL) in MEM containing 5% HS, and incubated at 37° C. To assay for plaque-forming virus, after 3 days monolayers were fixed with 3.7% formaldehyde for 2 h at room temperature, the agarose plugs were removed, and the monolayers were stained with crystal violet.

[6] = system: HCV1a/2a chimeric virus; test: HCV entry assay with HCV1a/2a chimeric virus; type: cell-based, HCV genotype 1a
Excerpt: Since HCV genotype 1 is the most prevalent genotype among the variants of HCV, we constructed an HCV1a/2a chimeric infectious clone with two cell-culture adaptive mutations introduced. Sequences for the structural proteins (including C, E1, and E2), p7, and NS2 were derived from HCV genotype 1a H77 strain. The rest of nonstructural proteins (NS3 to NS5B) and 3′ NTR were derived from HCV genotype 2a JFH strain. 5′NTR was originated from HCV2aJ6 (FIG. 7). […] Therefore, both HCV1a/2aCh virus and HCV1a/2aChLuc virus with Y361H and Q1251L mutations were successively produced in Huh7 cells and used for HCV entry assay.

[7] = system: HCV; test: Combination of viral entry inhibitor with IFN-α, HCVcc infection system, luciferase assay; type: cell-based; conditions: Huh7 cells, 72 hrs
Description: The current standard of care for the treatment of chronic hepatitis C is the combination of pegylated IFN-α (interferon-alpha) and ribavirin. […] Huh7 cells were incubated with various concentrations of Compound 1 or interferon alone, or combinations of both for 72 hrs, and the anti-HCV activity was measured by luciferase assays. The same was experiment was performed for Compound 5.

[8] = system: HCV1a chimeric virus and 2a chimeric virus; test: Combination of viral entry inhibitor with ribavirin; type: cell-based, HCV; conditions: ribavirin 15 μM
Description: Varying amounts of each compound were coincubated with a high concentration of ribavirin (15 μM).

[9] = system: HCV; test: Combination of viral entry inhibitor with HCV protease inhibitor VX-950; type: cell-based; conditions: fixed ratio based on EC50
Description: Additional combination studies of Compound 1 and Compound 5 with the HCV NS3 protease inhibitor VX-950 were conducted. Compound 1 and Compound 5 were tested singly and in combination with VX-950. The ratio of the two compounds, based on the compound's EC50, remained fixed across the dosing range. The potential cytotoxicity of individual compounds was assessed with a luminescent ATP-based cell viability assay (Cell Titer-Glo; Promega). Cell culture and luciferase compound assays were performed as previously described in Example 3.
Compound interactions were quantified by the approach described by Chou and Talalay, relying on the median effect principle and the multiple-drug effect equation. […] Isobolograms were generated for each combination tested and were used to determine the additivity, synergism or antagonism of inhibitor combinations. Combination indices (CI) were determined with Calcusyn (Biosoft) for each experiment at the EC50, EC75, and EC90 of the combination. By convention, a CI of <0.9 was considered synergistic, a CI of ≧0.9 or ≦1.1 was considered additive, and a CI of >1.1 was deemed antagonistic. […] Combination indices (CI) were determined with Calcusyn (Biosoft) for each experiment at the EC50, EC75, and EC90 of the combination. By convention, a CI of <0.9 was considered synergistic, a CI of ≧0.9 or ≦1.1 was considered additive, and a CI of >1.1 was deemed antagonistic.

[10] = system: HCV2aChLuc (NS3:A156S); test: Infectivity of protease mutant virus versus wild type in the presence of compounds; type: cell-based, HCV genotype 2a; conditions: HCV2aChLuc (NS3:A156S) vs wild type HCV2aChLuc
Excerpt: Therefore, we introduced A156S mutation in the backbone of HCV2aChLuc genome and investigated the infectivity of the mutant virus in the presence of compounds.

[11] = system: HCV2aCh (E2:G451R) mutant virus; test: E2:G451R mutant virus infectivity, luciferase assay; type: cell-based, HCV genotype 2a; conditions: E2:G451R vs parental
Excerpt: Since SR-B1 is also known to be one of the essential cellular receptors required for HCV entry, we were interested to know if Compounds 1 and 5 inhibits HCV entry via SR-B1. HCV E2 protein interaction with SR-B1 is believed to occur via hypervariable region 1 located within the N-terminal region of the E2 glycoprotein. Zhong and colleagues reported that a glycine-to-arginine mutation at position 451 (G451R) in E2 promoted JFH-1 infectivity (J. Viol. 2006, 80:11082). […] We introduced the E2:G451R mutation into the backbone of HCV2aCh (FIG. 13a) to test whether this mutation may alter the inhibitory effect of Compounds 1 and 5 on HCV entry mediated by SR-B1.

[12] = system: HCV2a/2aChRluc virus; test: Compound 5 with ribavirin or VX950 in the HCV2a/2aChRluc system; type: cell-based, HCV genotype 2a; conditions: ribavirin alone, 15 μM
Description: 100 μl of serially diluted compound solutions (100, 30, 10, 3, 1, 0.3, and 0.1 nM) was inoculated onto Huh-7 cells in a 96-well plate. Subsequently, 100 ul (TCID50, ˜0.6) of HCV2a/2aChRluc virus was added onto the cells. After co-incubation for 72 hrs, Renilla luciferase expression was determined (Renilla Luciferase Assay, Promega) and reported as relative light units (RLU).
Data analysis. Determinations of compound interactions were quantified based on the median-effect principle described by Chou and Talalay. Chou T., Talalay P., Adv. Enzyme. Regul., 1984, 22:27-55. Combination indices (CIs) were determined using Calcusyn (Biosoft) for each experiment at the EC50, EC75, and EC90 levels. Five replicates per condition were evaluated. A CI<0.9 was considered synergistic, a CI≧0.9 and ≦[…] was considered additive, and a CI>1.1 was deemed antagonistic.

[13] = system: Huh7.5.1 cells

C[C@@]1(O)[C@H](O)[C@@H](CO)O[C@H]1n1cnc2c(N)ncnc21 [2′-C-methyladenosine, reference compound]
EC50 ([1]; Hepatitis C virus, Huh-7.5.1): 0.252 ± 0.0335 µM
CC50 [2]: > 100 µM

COc1ccc2c(O[C@@H]3C[C@H]4C(=O)N[C@]5(C(=O)O)C[C@H]5/C=C\CCCCC[C@H](NC(=O)OC5CCCC5)C(=O)N4C3)cc(-c3csc(NC(C)C)n3)nc2c1 [BILN2061, reference compound]
EC50 ([1]; Hepatitis C virus, Huh-7.5.1): 0.492 ± 0.0567 µM
CC50 [2]: 35 µM

COc1ccc(C(C)(C)C)cc1NC(=O)C(=O)c1ccc(OCCN2CCOCC2)c2ccccc12 [Compound 1, N-(5-tert-butyl-2-methoxyphenyl)-2-(4-(2-morpholinoethoxy)naphthalen-1-yl)-2-oxoacetamide]
IC50 ([3]; Huh-7, 72 h, read-out: observed IC50, Huh7 cells co-incubated with HCV2aChRluc virus and compound for 3 days, repeated assays (n>30)): 0.0002 to 0.002 µM
IC50 ([3]; Huh-7, read-out: Activity class (IC50), tested according to the method of Example 3): < 0.005 µM
inhibitory effect on HCV2aChLuc viral entry ([3]; Huh7 cells, 3 days): dose-dependent inhibitory effect; also recorded: dose-dependent inhibition
effect on HCV replication (NS5A protein expression by ELISA) [4]: did not measurably inhibit; also recorded: no measurable effect
inhibitory effect on BVDV infection [5]: no measurable inhibitory effect
inhibition of HCV1a chimeric virus ([6]; compared with HCV2a chimeric virus): inhibited
effect of combination with IFN-α on inhibition of HCV infection in cell culture [7]: additive to moderate synergistic effect
effect of combination with ribavirin [8]: no antagonistic effect
effect of combination with VX-950 [9]: additive to slightly synergistic effects
resistance of NS3:A156S mutant virus versus wild type (inhibition of infectivity) [10]: no significant difference
sensitivity of E2 mutant virus relative to parental virus, luciferase assay for viral infectivity [11]: greater resistance

NC(=O)c1ncn([C@@H]2O[C@H](CO)[C@@H](O)[C@H]2O)n1 [ribavirin, reference compound]
inhibitory effect on infectivity of 2a chimeric virus ([3]; ribavirin alone, 15 μM): did not have significant inhibitory effect
inhibitory effect on infectivity of HCV1a chimeric virus ([6]; ribavirin alone, 15 μM): did not have significant inhibitory effect
inhibitory effect on the infectivity of 2a chimeric virus [12]: did not have significant inhibitory effect

IFN-α
effect on HCV replication (NS5A protein expression by ELISA) [4]: dose dependent inhibition
sensitivity of E2 mutant virus relative to parental virus, luciferase assay for viral infectivity [11]: very identical patterns
EC50 ([1]; Jc1-luc, ± standard error of the mean): 3.01 ± 0.39 IU/ml
CC50 [13]: >100 IU/ml

— US20110117055A1, “Methods of Treating Hepatitis C Virus with Oxoacetamide Compounds” (priority 2009, published 2011)
